Results from patent publication US4638005A, “Monoquaternized pyrazinium compounds and their use as electron carriers in photosynthetic processes” (The Coca-Cola Company, priority 1983, dated 1987).

How the values were obtained:
[1] = Polarographic half-wave potential (first wave reduction); type: physicochemical; details: 0.1 M phosphate buffer pH 7.55, 25° C.
From the text: Sci., 65, 1471(1976). Therefore, it was of interest to measure polarographically the half-wave potentials of the several pyrazinium salts under consideration, to determine the possible effect of structure upon their redox potentials.

nitrogenase [2] = target: T1, nitrogenase (Azotobacter vinelandii, UniProt P00459); experiment: Chloroplast-coupled evolution of hydrogen by nitrogenase in the absence of substrate; type: biochemical; details: Table II, hydrogen evolution; for ACTIVITY (nmoles H2 /mg protein/min): no nitrogen or acetylene, synthetic carriers 2 mM, ferredoxin 0.2 mM
T1 construct: the nitrogenase sample was prepared from a culture of Azotobacter vinelandii; endogenous in cells; host or cells: Azotobacter vinelandii culture; French press lysate, 10,000 x g supernatant (crude)
T1 sequence (P00459 2-290 limits assumed): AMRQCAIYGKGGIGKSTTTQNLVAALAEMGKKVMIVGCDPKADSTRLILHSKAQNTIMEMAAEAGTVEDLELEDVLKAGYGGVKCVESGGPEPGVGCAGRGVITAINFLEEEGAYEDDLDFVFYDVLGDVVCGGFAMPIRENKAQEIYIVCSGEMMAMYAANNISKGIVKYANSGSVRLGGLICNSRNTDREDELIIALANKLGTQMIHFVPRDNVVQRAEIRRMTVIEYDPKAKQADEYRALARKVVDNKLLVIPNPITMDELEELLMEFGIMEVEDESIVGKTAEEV
Procedure: (§1) For the bioassay, the nitrogenase sample was prepared from a culture of Azotobacter vinelandii grown to a cell density of about 1 g/l. The cells harvested by centrifugation were broken in a French press, cell debris spun off at 10,000 XG for 1 hr., and the supernatant containing 40 mg/ml protein was used in the bioassay experiments. […] chloroplasts from spinach leaves as described by Benemann were also used. The synthetic carriers were tested in aqueous solutions at concentrations of 2 mM, while the standard, clostridial ferredoxin, was used in 0.2 mM aqueous solution. The concentrations of carriers in the assay mixtures were chosen so as to guarantee carrier saturation conditions. Thus, the observed differences in rates of ethylene production from the substrate acetylene were assigned directly to variations in the efficiency of electron transfer from the illuminated chloroplast to the nitrogenase. The results obtained for acetylene reduction (nitrogen fixation) using the pyrazinium compounds of Examples 1 through 42 are summarized in Table I and are expressed as nmoles of ethylene produced per mg protein per minute.
It has been recognized for sometime the connection existing between hydrogen metabolism and nitrogen fixation. […] When nitrogenase was purified extensively, as mentioned above, it became apparent that in addition to nitrogen, nitrogenase also catalyzed the reduction of protons. The evolution of hydrogen is particularly active in the absence of the normal substrates for nitrogenase (nitrogen, acetylene, cyanide, azide, etc.), and is dependent upon a strong reductant and adenosine triphosphate hydrolysis. Since hydrogen evolution is not inhibited by CO, but reduction of nitrogen and other substrates is, the reduction of protons presumably occurs at a site other than the site of nitrogen reduction, H. C. Winter, et. al., Ann Rev. Biochem, 45, 409 (1976). Accordingly, with the same bioassay system and with exclusion of nitrogen, and acetylene, the activity of the pyrazinium compounds to act as carriers for production of hydrogen has been determined.
The results of this study, which are summarized in Table II, indicate that the pyrazinium salts that mediate the reduction of acetylene with electrons from the photoexcited chloroplast, are also mediating the reduction of protons by the nitrogenase.

nitrogenase [3] = target: T1, nitrogenase; experiment: Chloroplast-coupled reduction of acetylene to ethylene by nitrogenase (electron carrier bioassay of Benemann); type: biochemical; details: for ACTIVITY RELATIVE TO FERREDOXIN (%) / ACTIVITY (nmoles C2 H4 /mg protein/min): Table I; for ACTIVITY RELATIVE TO FERREDOXIN (%): acetylene reduction to ethylene; for ACTIVITY (nmoles C2 H4 /mg protein/min): illuminated spinach chloroplasts, synthetic carriers 2 mM, clostridial ferredoxin 0.2 mM; for ETHYLENE FORMATION % Ferredoxin Activity: Table III ranking; for % FERREDOXIN ACTIVITY: Table IV, acetylene reduction
Procedure: The activity of the pyrazinium compounds as electron carriers in an illuminated photocouple process using isolated chloroplasts and the reductive enzyme catalyst nitrogenease has been determined using the bioassay of Benemann, et al., Proc. Natl. Acad. Sci. USA, 64, 1079(1969). In this method, the carrier activity is measured as a function of nitrogenase reduction of acetylene to ethylene, the rate of production of ethylene being the direct measurement.
as §1

## COC(=O)c1c[n+](C)ccn1 [Compound 4500]
[1]
  E1/2 vs. SCE (mV): -390 mV
Nitrogenase [2]
  ACTIVITY RELATIVE TO FERREDOXIN (%): 0%
  ACTIVITY (nmoles H2 /mg protein/min): 0.0 nmoles H2 /mg protein/min
Nitrogenase [3]
  ACTIVITY RELATIVE TO FERREDOXIN (%): 0%
  ACTIVITY (nmoles C2 H4 /mg protein/min): 0.0 nmoles C2 H4 /mg protein/min
  ETHYLENE FORMATION % Ferredoxin Activity: 0%
  % FERREDOXIN ACTIVITY: 0%

## C[n+]1ccnc(C(O)CO)c1.[I-] (stereo not drawn) [Compound 2200, 1-Methyl-3-(1,2-dihydroxyethyl)pyrazinium iodide]
[1]
  E1/2 vs. SCE (mV): -704 mV
Nitrogenase [2]
  ACTIVITY RELATIVE TO FERREDOXIN (%): 98%
  ACTIVITY (nmoles H2 /mg protein/min): 26.2 nmoles H2 /mg protein/min
Nitrogenase [3]
  ACTIVITY RELATIVE TO FERREDOXIN (%): 55%
  ACTIVITY (nmoles C2 H4 /mg protein/min): 7.5 nmoles C2 H4 /mg protein/min
  ETHYLENE FORMATION % Ferredoxin Activity: 55%
  % FERREDOXIN ACTIVITY: 55%

## CCC(=O)Cc1c[n+](C)ccn1 [Compound 3500, 1-Methyl-3-(2-oxybutyl)pyrazinium iodide]
[1]
  E1/2 vs. SCE (mV): -575 mV
Nitrogenase [2]
  ACTIVITY RELATIVE TO FERREDOXIN (%): 19%
  ACTIVITY (nmoles H2 /mg protein/min): 5.0 nmoles H2 /mg protein/min
Nitrogenase [3]
  ACTIVITY RELATIVE TO FERREDOXIN (%): 5%
  ACTIVITY (nmoles C2 H4 /mg protein/min): 0.7 nmoles C2 H4 /mg protein/min
  ETHYLENE FORMATION % Ferredoxin Activity: 5%
  % FERREDOXIN ACTIVITY: 5%

## C[n+]1ccnc(CC(C(O)CO)S(=O)(=O)[O-])c1 (stereo not drawn) [Compound 4100]
[1]
  E1/2 vs. SCE (mV): -720 mV
Nitrogenase [2]
  ACTIVITY RELATIVE TO FERREDOXIN (%): 73%
  ACTIVITY (nmoles H2 /mg protein/min): 19.4 nmoles H2 /mg protein/min
Nitrogenase [3]
  ACTIVITY RELATIVE TO FERREDOXIN (%): 110%
  ACTIVITY (nmoles C2 H4 /mg protein/min): 14.8 nmoles C2 H4 /mg protein/min
  ETHYLENE FORMATION % Ferredoxin Activity: 110%
  % FERREDOXIN ACTIVITY: 110%

## CC(O)c1c[n+](C)ccn1 (stereo not drawn) [Compound 200, 1-Methyl-3-(1-hydroxyelhyl)pyrazinium iodide]
[1]
  E1/2 vs. SCE (mV): -699 mV
Nitrogenase [2]
  ACTIVITY RELATIVE TO FERREDOXIN (%): 64%
  ACTIVITY (nmoles H2 /mg protein/min): 17.2 nmoles H2 /mg protein/min
Nitrogenase [3]
  ACTIVITY RELATIVE TO FERREDOXIN (%): 17%
  ACTIVITY (nmoles C2 H4 /mg protein/min): 2.3 nmoles C2 H4 /mg protein/min
  ETHYLENE FORMATION % Ferredoxin Activity: 17%
  % FERREDOXIN ACTIVITY: 17%

## C[n+]1ccnc(CCS(=O)(=O)[O-])c1 [Compound 2600]
[1]
  E1/2 vs. SCE (mV): -730 mV
Nitrogenase [2]
  ACTIVITY RELATIVE TO FERREDOXIN (%): 154%
  ACTIVITY (nmoles H2 /mg protein/min): 41.2 nmoles H2 /mg protein/min
Nitrogenase [3]
  ACTIVITY RELATIVE TO FERREDOXIN (%): 98%
  ACTIVITY (nmoles C2 H4 /mg protein/min): 13.2 nmoles C2 H4 /mg protein/min
  ETHYLENE FORMATION % Ferredoxin Activity: 98%
  % FERREDOXIN ACTIVITY: 98%

## Cc1c[n+](C)cc(CS(=O)(=O)[O-])n1 [Compound 3000]
[1]
  E1/2 vs. SCE (mV): -738 mV
Nitrogenase [2]
  ACTIVITY RELATIVE TO FERREDOXIN (%): 124%
  ACTIVITY (nmoles H2 /mg protein/min): 33.1 nmoles H2 /mg protein/min
Nitrogenase [3]
  ACTIVITY RELATIVE TO FERREDOXIN (%): 99%
  ACTIVITY (nmoles C2 H4 /mg protein/min): 13.4 nmoles C2 H4 /mg protein/min
  ETHYLENE FORMATION % Ferredoxin Activity: 99%
  % FERREDOXIN ACTIVITY: 99%

## CCc1c[n+](C)ccn1 [Compound 4900]
[1]
  E1/2 vs. SCE (mV): -700 mV
Nitrogenase [2]
  ACTIVITY RELATIVE TO FERREDOXIN (%): 8%
  ACTIVITY (nmoles H2 /mg protein/min): 2.2 nmoles H2 /mg protein/min
Nitrogenase [3]
  ACTIVITY RELATIVE TO FERREDOXIN (%): 2%
  ACTIVITY (nmoles C2 H4 /mg protein/min): 0.3 nmoles C2 H4 /mg protein/min
  ETHYLENE FORMATION % Ferredoxin Activity: 2%
  % FERREDOXIN ACTIVITY: 2%

## CCC(O)Cc1c[n+](C)ccn1.[I-] (stereo not drawn) [Compound 3400, 1-Methyl-3-(2-hydroxybutyl)pyrazinium iodide]
[1]
  E1/2 vs. SCE (mV): -680 mV
Nitrogenase [2]
  ACTIVITY RELATIVE TO FERREDOXIN (%): 111%
  ACTIVITY (nmoles H2 /mg protein/min): 29.7 nmoles H2 /mg protein/min
Nitrogenase [3]
  ACTIVITY RELATIVE TO FERREDOXIN (%): 20%
  ACTIVITY (nmoles C2 H4 /mg protein/min): 2.7 nmoles C2 H4 /mg protein/min
  ETHYLENE FORMATION % Ferredoxin Activity: 20%
  % FERREDOXIN ACTIVITY: 20%
